Molecules are shown by their SMILES. Read-outs that look alike come from different tables or passages of the source.

In series [1] the test system is H460 (Human non-small cell lung adenocarcinoma). The series can be described thus: SRB/MTT anti-proliferative assay, H460. The series is classed as cell-based. Conditions: 48 hours treatment, read-out: GI50 (Concentration of drug causing 50% inhibition of cell growth). The procedure: (§1) The anticancer effect of DSePA was evaluated using a panel of twenty-five human cancer cell lines of different tissue origins. Cells were treated with the increasing concentrations (0.1-100 μM) of DSePA for 48 h and viability was monitored by (Sulforhodamine B) SRB assay or MTT assay.
(§2) Cell culture and DSePA synthesis—DSePA was synthesized and characterized as described in our previous reports. Cell lines were cultured in growth medium (DMEM/RPMI) supplemented with 10% FBS, 100 U/ml penicillin and 100 μg/ml streptomycin at 37° C. in a humidified 5% CO2 environment. The stock solution of DSePA was prepared fresh in cell culture medium and diluted with the same to achieve the desired concentrations.
(§3) SRB/MTT Assay—To evaluate the anti-proliferative effect of DSePA, Cells (˜5×10^3) suspended in 100 μl of complete culture medium were seeded in each well of 96 well plates. The cells were allowed to attach and grow for 24 h, treated with desired concentrations of DSePA dissolved in culture medium for 48 h and then processed for SRB/MTT assay as described in literature. The percentage (%) cytotoxicity was calculated from the decrease in absorbance as compared to that of control group.

The conditions of series [2]: rat; cited from earlier work.
Series [3] concerns CHO (Chinese Hamster Ovary (normal)). The series can be described thus: SRB/MTT assay, normal CHO cells. The series is classed as cell-based. The procedure: as §1, §2, §3
On the technique in general: Tetrazolium dyes change colour on reduction, which living cells bring about.

The subject of series [4] is Vero (Monkey kidney transformed epithelial cell line (normal)). The series can be described thus: SRB/MTT assay, normal Vero cells. The class given is cell-based. The procedure:
as §1, §2, §3

The conditions of series [5]: mice; cited from earlier work.

With `O=C(O)CC[Se][Se]CCC(=O)O` [DSePA, 3,3′-diselenodipropionic acid], the GI50 in series [1] is 8 µM; in series [1] (Homo sapiens, NCI-H460, 48 h) it was at most 10 µM; in series [3] (Cricetulus griseus, CHO normal cells, 48 hours treatment, SRB/MTT assay, read-out: GI50 (Concentration of drug causing 50% inhibition of cell growth)), over 100 µM; in series [4] (Primates, Vero normal cells, 48 hours treatment, SRB/MTT assay, read-out: GI50 (Concentration of drug causing 50% inhibition of cell growth)), over 100 µM. The results for the “estimated median oral Lethal dose (LD50) cut-off” value in series [2] and in series [5] were 25 mg/kg and 200 mg/kg, respectively. For the same compound, the “toxicity in normal cell types” value in series [3] (CHO, 0.1-100 μM, 48 h) was “did not show toxicity”; in series [4] (Vero, 0.1-100 μM, 48 h), “did not show toxicity”.
